Source: patent US20240325382A1, “COMPOSITIONS AND METHODS FOR TREATING ANEMIA ASSOCIATED WITH A RIBOSOMAL DISORDER” (Disc Medicine, Inc., priority 2021, published 2024)
“Also recorded” adds a separate entry of the source.

How the values were obtained:
Type in all cases: cell-based
[1] = tested on: TF-1 cells expressing scrambled shRNA; assay: Cell number after bitopertin treatment, scrambled shRNA TF-1 cells; settings: 4 nM or 37 nM bitopertin, 2 days (day 4 to day 6), doxycycline and GMCSF
Description: (§1) Prior to treatment with bitopertin, the TF-1/shRNA #a cells were treated with doxycycline for 4 days to induce RPS19 knockdown by shRNA #a. TF-1/scramble shRNA cells were treated similarly as an experimental control. On day 4, both TF-1/shRNA #a and TF-1/scramble shRNA cells were seeded to the 12-well cell culture plates at a density of 1×10^5 cells per well. Bitopertin was added to the cells in 12-well plates for 48 hours of treatment from day 4 to day 6. […] Each of the TF-1 cells were also treated with doxycycline and GMCSF, which induces shRNA expression and stimulates proliferation, for the entirety of the experiment.
(§2) We investigated if blocking the uptake of heme biosynthesis pathway precursor glycine into cells with bitopertin could restore the balance between heme and globin and reverse the anti-proliferative effects caused by RPS19 knockdown. To test this hypothesis, similarly as above, washed cells were seeded in 6-well plates with doxycycline and GMSCSF to induce shRNA expression and cell proliferation for four days. On day 4, 1×10^5 cells were seeded into a 12-well plate with 4 nM or 37 nM bitopertin. After two days of treatment with bitopertin, we enumerated cell numbers.

TF-1/shRNA #b cells = assay: CTG cell viability after bitopertin treatment, RPS19 knockdown TF-1 cells; settings: varying doses, 1 μM top concentration, 9 points 3-fold dilutions, 2 days, doxycycline and GMCSF
Description: The cells were treated with (1) doxycycline during the entire cell culture period to induce shRNA expression; (2) GMCSF during the entire 6 days of cell culture period to induce proliferation. At day 4 of cell culture, the TF-1 cells were seeded to the 96-well cell culture plates at a density of 1×10^4 cells per well, and were treated with varying doses of bitopertin for two days of the culture period, from day 4 to day 6.
Further, in a similar setup, an equal number of cells were seeded on to 96-well plates after four days of doxycycline treatment and incubated with varying doses of bitopertin (1 μM top concentration, 9 points 3-fold dilutions) for two days and on day 6, we performed a CTG assay to measure the cell viability. The cells were cultured in the presence of GMCSF during the entire cell culture period.

TF-1 shRNA #a cells = assay: Cell number after bitopertin treatment, RPS19 knockdown TF-1 cells; settings: 4 nM or 37 nM bitopertin, 2 days (day 4 to day 6), doxycycline and GMCSF
Description: as §1, §2

TF-1 cells [2] = assay: Cell viability of TF-1 stable lines by CellTiter-Glo (CTG); settings: GMCSF and EPO stimulus, doxycycline, 96-well plates
Description: Similarly, the cell growth capability of TF-1 stable lines shRNA #a, shRNA #b, and scrambled shRNA was assessed in vitro by cell viability assay. As described above, washed cells were seeded into 96 well plates in equal numbers in media containing either GMCSF or EPO (FIG. 4A and FIG. 4B) on separate plates for each day of readout. Cell viability was measured using the CellTiter-Glo® (CTG), which determines the number of viable cells in culture by quantifying ATP, which indicates the presence of metabolically active cells.

TF-1 cells [3] = assay: Cell growth of TF-1 stable lines by cell counting with trypan blue staining; settings: 6 days of culture with doxycycline; for growth inhibition (cell count): EPO; for effect on cell proliferation (cell count) compared to scrambled shRNA: GMCSF (2 ng/ml)
Excerpt: RPS19 knockdown in TF-1 cells has been previously reported to adversely affect the growth of erythroid cells due to an imbalance in heme and globin synthesis. See, e.g., Yang, Z. et al. Sci Transl Med 8, 338ra67 (2016). The TF-1 cell line is a cell line of immature erythroid origin that requires cytokines such as granulocyte-macrophage colony-stimulating factor (GMCSF) or erythropoietin (EPO) for its growth. The cell growth capability of TF-1 stable lines shRNA #a, shRNA #b, and scrambled shRNA were assessed in vitro by cell counting after 6-days of cell culture in the presence of doxycycline induction. Cells were washed from regular growth media and seeded in equal numbers into media containing either GMCSF (2 ng/ml), a growth factor that induces proliferation of the TF-1 cells, or EPO (Ing/ml), a hormone that induces growth of the TF-1 cells and induces their differentiation along the erythroid lineage. Cell growth was monitored by counting cells with trypan blue staining (FIG. 3A and FIG. 3B).

RPS19 protein = RPS19 protein levels by western blot in TF-1 stable cell lines; settings: TF-1 stable line, doxycycline-induced shRNA, by day 5
Description: To generate an RPS19 deficient Diamond blackfan anemia (DBA) model, a TF-1 erythroid cell line was transduced with lentivirus encoding shRNAs targeting RPS19 (referred to as “shRNA #a” and “shRNA #b”) and a scrambled shRNA control (referred to as “Scramble shRNA” or “Scrambled”) (See Table 1). Stable cell lines were generated by selecting the infected cells with puromycin (1 ug/ml) for three weeks. The shRNA expression is doxycycline inducible. In the stable cell lines, RPS19 mRNA expression was measured using qRT-PCR after two (FIG. 1A) and four (FIG. 1B) days of doxycycline treatment. […] Further, RPS19 protein levels were decreased by more than 70% by shRNA #b by day 5 (FIG. 2A and FIG. 2B). The antibodies used in determining the RPS19 protein levels are described in Table 1.

Compound	effect on cell number of scrambled shRNA cells [1]	effect on cell viability (CTG) compared to TF-1/scrambled shRNA cells (TF-1/shRNA #b cells)	effect on cell number of RPS19 knockdown cells (TF-1 shRNA #a cells)	cell growth inhibition (CTG cell viability) compared to scrambled shRNA (TF-1 cells [2])	growth inhibition (cell count) (TF-1 cells [3])	effect on cell proliferation (cell count) compared to scrambled shRNA (TF-1 cells [3])	decrease of RPS19 protein levels (RPS19 protein)
C[C@H](Oc1ccc(S(C)(=O)=O)cc1C(=O)N1CCN(c2ncc(C(F)(F)F)cc2F)CC1)C(F)(F)F [bitopertin]	did not affect	dose-dependent bitopertin protective effect	reverses the anti-proliferative effects; also recorded: protective effect				
shRNA #a: lentivirus-encoded, doxycycline-inducible shRNA targeting RPS19, GAGATCTGGACAGAATCGC (SEQ ID NO: 1)				moderate cell growth inhibitory effects	dose-dependent growth inhibition	moderate effect	
shRNA #b: lentivirus-encoded, doxycycline-inducible shRNA targeting RPS19, GCTTGCTCCCTACGATGAGAA (SEQ ID NO: 2)				high degree inhibition in cell growth	dose-dependent growth inhibition	more substantial effect	more than 70%
